Data on 19 molecules can be found in patent US20110263647A1 (AMGEN INC., priority 2009, published 2011).

Counter-ions that a name gives are not always drawn.

This test deals with T1, PKBα (Homo sapiens, UniProt P31749).
T1 construct: fused on or other part: His6 tag is likely on the Upstate products
Put plainly: PKB kinase assay (P33-labeled ATP, peptide substrate, filter plate). Format: biochemical. The note with it: with respect to PKBα. From the text:
The kinase assay for evaluating PKB activity comprises active PKB enzymes, a PKB specific substrate, and P^33-labeled ATP. Two form of PKBα enzymes were used, the full length PKBα and a kinase domain of PKBα with pleckstrin domain (amino acids 1-117) deleted. Both PKB enzymes were obtained from Upstate cell signaling solutions (Cat.# 14-276 and 14-341). The PKB substrate used is a synthetic peptide (ARKRERTYSFGHHA (SEQ ID NO: 1)) as described in Obata et al., J. Biol. Chem. 275 (46), 36108-36115 (2000). The phosphorylated substrate was captured by a phosphocellulose membrane filter plate (MILLIPORE) and measured by a Wallac Microbeta liquid scintillation counter (Perkin Elmer). Table 1 provides the IC50 values obtained for each of the examples with respect to PKBα.

T1 sequence (P31749 118-472 limits assumed): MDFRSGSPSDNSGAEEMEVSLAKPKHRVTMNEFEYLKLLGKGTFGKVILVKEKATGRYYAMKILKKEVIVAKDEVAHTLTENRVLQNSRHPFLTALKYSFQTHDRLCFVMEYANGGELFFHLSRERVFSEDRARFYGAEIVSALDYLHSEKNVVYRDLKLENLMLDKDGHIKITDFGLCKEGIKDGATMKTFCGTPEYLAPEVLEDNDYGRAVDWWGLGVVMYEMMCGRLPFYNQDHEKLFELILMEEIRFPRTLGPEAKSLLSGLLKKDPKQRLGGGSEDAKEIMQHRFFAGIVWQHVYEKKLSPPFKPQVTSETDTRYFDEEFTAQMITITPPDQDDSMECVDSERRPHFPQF

`N[C@H](CNc1ncc(-c2ccc3cnc(F)cc3c2)s1)Cc1cnc(C(F)(F)F)nc1` [Example 26, N—((S)-2-Amino-3-(2-(trifluoromethyl)pyrimidin-5-yl)propyl)-5-(3-fluoroisoquinolin-6-yl)thiazol-2-amine] displayed an IC50 of under 50 nM.

In turn, `COC[C@@H](c1ccc(C(F)(F)F)cc1)[C@H](N)CNc1ncc(-c2ccc3cnc(F)cc3c2)s1` [Example 32, N-((2S,3S)-2-Amino-4-methoxy-3-(4-(trifluoromethyl)phenyl)butyl)-5-(3-fluoroisoquinolin-6-yl)thiazol-2-amine] displayed a 50% inhibitory concentration (IC50) of under 50 nM.

As for `COC(=O)c1nc(NC[C@@H](N)Cc2ccc(C(C)(F)F)nc2)sc1-c1ccc2cnc(F)cc2c1` [Example 8, Methyl 2-((S)-2-amino-3-(6-(1,1-difluoroethyl)pyridin-3-yl)propylamino)-5-(3-fluoroisoquinolin-6-yl)thiazole-4-carboxylate], the concentration for half-maximal inhibition (IC50) is under 50 nM.

Consider `N[C@H](CNc1nc(CO)c(-c2ccc3cnc(F)cc3c2)s1)Cc1ccc(C(F)(F)F)cc1` [Example 21, (2-((S)-2-Amino-3-(4-(trifluoromethyl)phenyl)propylamino)-5-(3-fluoroisoquinolin-6-yl)thiazol-4-yl)methanol], for which the half-inhibitory concentration (IC50) is under 50 nM.

With `COCc1nc(NC[C@H](N)Cc2ccc(C(F)(F)F)nc2)sc1-c1ccc2cnc(F)cc2c1` [Example 19, N—((R)-2-Amino-3-(6-(trifluoromethyl)pyridin-3-yl)propyl)-5-(3-fluoroisoquinolin-6-yl)-4-(methoxymethyl)thiazol-2-amine], the concentration for half-maximal inhibition (IC50) was in the range of 1000 to 10000 nM.

For `N[C@H](CNc1nc(C(=O)NC2CC2)c(-c2ccc3cnc(F)cc3c2)s1)Cc1ccc(C(F)(F)F)cc1` [Example 23, 2-((S)-2-Amino-3-(4-(trifluoromethyl)phenyl)propylamino)-N-cyclopropyl-5-(3-fluoroisoquinolin-6-yl)thiazole-4-carboxamide], the IC50 lay within 1000 to 10000 nM.

In turn, `COCc1nc(NC[C@@H](N)[C@@H](C)c2ccc(C(F)(F)F)nc2)sc1-c1ccc2cnc(F)cc2c1` [Example 13, N-((2S,3S)-2-Amino-3-(6-(trifluoromethyl)pyridin-3-yl)butyl)-5-(3-fluoroisoquinolin-6-yl)-4-(methoxymethyl)thiazol-2-amine] registered an IC50 of under 50 nM.

The molecule `COCc1nc(NC[C@@H](N)Cc2ccc(C(F)(F)F)cc2)sc1-c1ccc2cnc(F)cc2c1` [Example 24, N—((S)-2-Amino-3-(4-(trifluoromethyl)phenyl)propyl)-5-(3-fluoroisoquinolin-6-yl)-4-(methoxymethyl)thiazol-2-amine] came in with an IC50 of under 50 nM.

In the case of `COCc1nc(NCC(N)[C@@H](C)c2ccc(C(F)(F)F)cc2)sc1-c1ccc2cnc(F)cc2c1` (stereo in doubt) [Example 27, N-((2R,3S)-2-Amino-3-(4-(trifluoromethyl)phenyl)butyl)-5-(3-fluoroisoquinolin-6-yl)-4-(methoxymethyl)thiazol-2-amine], the half-inhibitory concentration (IC50) is under 50 nM.

Regarding `NC(CCc1nc(CO)c(-c2ccc3cnc(F)cc3c2)s1)Cc1ccc(C(F)(F)F)cc1` (racemic) [Example 51, (±)-(2-(3-Amino-4-(4-(trifluoromethyl)phenyl)butyl)-5-(3-fluoroisoquinolin-6-yl)thiazol-4-yl)methanol], the half-maximal inhibitory concentration (IC50) is 50 to 1000 nM.

`CNC(=O)c1nc(NC[C@@H](N)Cc2ccc(C(F)(F)F)cc2)sc1-c1ccc2cnc(F)cc2c1` [Example 22, 2-((S)-2-Amino-3-(4-(trifluoromethyl)phenyl)propylamino)-5-(3-fluoroisoquinolin-6-yl)-N-methylthiazole-4-carboxamide trifluoroacetate] had an IC50 of 50 to 1000 nM.

For the molecule `N[C@H](CNc1ncc(-c2ccc3cnc(F)cc3c2)s1)Cc1ccc(Cl)cc1` [Example 5, N—((S)-2-Amino-3-(4-chlorophenyl)propyl)-5-(3-fluoroisoquinolin-6-yl)thiazol-2-amine], the IC50 is under 50 nM.

`N[C@H](CCc1ncc(-c2ccc3cnc(F)cc3c2)s1)Cc1ccc(C(F)(F)F)cc1` [Example 48, (2R)-4-(5-(3-Fluoroisoquinolin-6-yl)thiazol-2-yl)-1-(4-(trifluoromethyl)phenyl)butan-2-amine] gave a half-inhibitory concentration (IC50) of 1000 to 10000 nM.

`N[C@H](CNc1ncc(-c2ccc3cnc(F)cc3c2)s1)Cc1ccc(C(F)(F)F)nc1Cl` [Example 31, N—((S)-2-Amino-3-(2-chloro-6-(trifluoromethyl)pyridin-3-yl)propyl)-5-(3-fluoroisoquinolin-6-yl)thiazol-2-amine] registered a 50% inhibitory concentration (IC50) of under 50 nM.

For the molecule `N[C@H](CNc1ncc(-c2ccc3cnc(F)cc3c2)s1)Cc1ccc(C(F)F)cc1` [Example 42, (2S)-3-(4-(difluoromethyl)phenyl)-N-1-(5-(3-fluoro-6-isoquinolinyl)-1,3-thiazol-2-yl)-1-2-propanediamine trifluoroacetate], the IC50 was under 50 nM.

Consider `COCO[C@@H](c1ccc(C(F)(F)F)cc1)[C@H](N)CNc1ncc(-c2ccc3cnc(F)cc3c2)s1` [Example 39], for which the IC50 is under 50 nM.

In the case of `COC(=O)c1nc(NC[C@@H](N)Cc2ccc(C(F)(F)F)nc2)sc1-c1ccc2cnc(F)cc2c1` [Example 15, Methyl 2-((S)-2-amino-3-(6-(trifluoromethyl)pyridin-3-yl)propylamino)-5-(3-fluoroisoquinolin-6-yl)thiazole-4-carboxylate], the half-inhibitory concentration (IC50) was under 50 nM.

In turn, `COC(=O)c1nc(NC[C@@H](N)[C@@H](C)c2ccc(C(F)(F)F)nc2)sc1-c1ccc2cnc(F)cc2c1` [Example 11, Methyl 2-((2S,3S)-2-amino-3-(6-(trifluoromethyl)pyridin-3-yl)butylamino)-5-(3-fluoroisoquinolin-6-yl)thiazole-4-carboxylate] registered an IC50 of 50 to 1000 nM.

With `COC(=O)c1ccc(C[C@H](N)CNc2ncc(-c3ccc4cnc(F)cc4c3)s2)cc1` [Example 45], the concentration for half-maximal inhibition (IC50) fell in the range of 50 to 1000 nM.

The IC50 is the concentration at which inhibition is half-maximal. The low end stands for greater potency in that assay, the high end for weaker potency in that assay.
